Measured values reported in Sander's compilation of Henry's law constants (doi:10.1584/jpestics.18.3_201).

Test: Henry solubility constant Hcp at 298.15 K (mol/(m3 Pa))
Conditions: reference: Watanabe (1993)

## CNC(=O)Oc1ccc(C)c(C)c1 [xylylcarb]
  Henry solubility constant Hcp: 91

## CCC(C)c1ccccc1OC(=O)NC (stereo not given) [fenobucarb]
  Henry solubility constant Hcp: 150

## CCOP(=S)(OCC)Oc1cc(C)nc(C(C)C)n1 [diazinon]
  Henry solubility constant Hcp: 11

## CCN(CC)C(=O)SCc1ccc(Cl)cc1 [S-(4-chlorobenzyl) diethylthiocarbamate]
  Henry solubility constant Hcp: 19

## COP(=S)(OC)Oc1ccc([N+](=O)[O-])c(C)c1 [fenitrothion]
  Henry solubility constant Hcp: 83

## CCCN(CCC)c1c([N+](=O)[O-])cc(C(F)(F)F)cc1[N+](=O)[O-] [trifluralin]
  Henry solubility constant Hcp: 0.91

## CC(C)OP(=O)(OC(C)C)SCc1ccccc1 [iprobenphos]
  Henry solubility constant Hcp: 260

## CCCCOCN(C(=O)CCl)c1c(CC)cccc1CC [butachlor]
  Henry solubility constant Hcp: 160

## CC(C)OC(=O)Nc1cccc(Cl)c1 [chlorpropham]
  Henry solubility constant Hcp: 23

## CCOC(=O)CC(SP(=S)(OC)OC)C(=O)OCC (stereo not given) [malathion]
  Henry solubility constant Hcp: 670
